According to PMC3140810 (International Journal of Women's Health, 2011):

Target: CYP3A4 (Homo sapiens, UniProt P08684)
Test: LC-MS/MS of 1-hydroxymidazolam, human liver microsomes
Format: biochemical

CYP3A4, sequence (P08684 2-503): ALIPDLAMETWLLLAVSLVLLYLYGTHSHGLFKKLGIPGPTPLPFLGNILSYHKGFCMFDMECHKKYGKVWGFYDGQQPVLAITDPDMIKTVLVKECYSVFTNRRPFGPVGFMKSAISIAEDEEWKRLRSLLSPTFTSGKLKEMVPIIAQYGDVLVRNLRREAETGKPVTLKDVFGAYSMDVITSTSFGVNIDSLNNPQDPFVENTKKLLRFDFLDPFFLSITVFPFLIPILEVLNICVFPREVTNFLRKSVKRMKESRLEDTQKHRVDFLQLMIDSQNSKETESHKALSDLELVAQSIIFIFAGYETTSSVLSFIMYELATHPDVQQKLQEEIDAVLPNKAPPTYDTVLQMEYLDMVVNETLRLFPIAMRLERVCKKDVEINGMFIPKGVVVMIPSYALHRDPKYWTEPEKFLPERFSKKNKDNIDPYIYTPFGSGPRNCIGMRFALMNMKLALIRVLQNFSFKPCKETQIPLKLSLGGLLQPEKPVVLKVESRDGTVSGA

Liver microsome inhibition genistein (25 μM): 19%
SMILES: O=c1c(-c2ccc(O)cc2)coc2cc(O)cc(O)c12 [genistein]
